Measured values: patent US20240415793A1, “Neuroprotective composition comprising pyruvate and citrate” (N.V. Nutricia, priority 2022, published 2024)

Assays:
neuroglial cell cultures = assay: Seahorse assay (OCR/ECAR), acute effects under seizure- and ketogenic diet-like conditions; type: cell-based, rat; details: HBSS, 0.1 mM Mg2+, 1 mM glucose, 500 μM bHB, 1 mM pyruvate, 1 mM citrate as added, vs control medium
Experimental: (§1) The oxygen consumption rates (OCRs) and extracellular acidification rates (ECARs) of cells seeded in 96-well plates were monitored in real time at 37° C. in unbuffered Hanks Balanced Salt Solution (HBSS). The OCRs represent foremost mitochondrial respiration, and to a minor extent non-mitochondrial respiration. The ECARs relate foremost to the acidification of the medium with lactate produced through glycolysis and secreted by the cells into the medium (Table 1).
(§2) During the Seahorse run, both the OCRs and ECARs were measured simultaneously at baseline and following the injection of compounds by the Seahorse instrument (Table 1). HBSS was supplemented with glucose from the start and no glucose was injected through the Seahorse instruments. Measurements were repeated three times at baseline and three times after each compound injection.
(§3) After the initial baseline measurement, oligomycin (OM) was injected. OM blocks mitochondrial ATP synthase (complex V) and therefore decreases mitochondrial respiration. The OCRs after OM injection are due to the mitochondrial proton leak. They enable to determine whether the test nutrients impact the proton leak. The difference in OCRs at baseline and after OM injection is the amount of oxygen used for mitochondrial ATP synthesis at baseline. From this difference in OCR, the mitochondrial ATP production rates are calculated.
After OM, uncoupling agent carbonyl cyanide-p- trifluoromethoxyphenyl-hydrazon [FCCP] was injected which collapses the proton gradient across the inner mitochondrial membrane established during respiration and required for ATP synthesis. The cells attempt to restore the proton gradient following FCCP injection by maximizing respiration. The OCRs measured after FCCP injection therefore represent the maximal respiratory capacity of the mitochondria in the sample and enable to determine whether test nutrients impact the maximal respiratory capacity of the mitochondria.
Finally, Antimycin A, a complex III inhibitor, and Rotenone, a complex I inhibitor, were co-injected, both blocking the respiratory chain at different sites to entirely shut down mitochondrial respiration and determine the non-mitochondrial respiration. The latter is necessary to correct all OCRs and obtain the mitochondrial OCRs.
The ECARs were measured simultaneously at baseline and after OM and FCCP injection. The glycolytic ATP production was calculated from the baseline ECARs. The subsequent injection of OM pushed the cells to maximize their glycolytic ATP production to compensate for the loss in mitochondrial ATP production inflicted by OM. The further addition of FCCP drove mitochondrial respiration to a maximum and this eventually led to a further increase in glycolytic rates providing pyruvate into the TCA cycle to sustain maximal respiration. Therefore, the ECARs after FCCP injection were used to determine the maximum glycolytic capacity of the cells.
To assess the effect of citrate and pyruvate under seizure- and ketogenic diet-like conditions a batch of cells was switched one hour prior to the Seahorse run to HBSS medium (which is a nutrient deprived culture medium) containing low (1 mM) glucose, 500 μM bHB and low (0.1 mM) Mg^2+, 1 mM citrate or 1 mM pyruvate (FIG. 6). The ketone p-hydroxybutyrate (bHB) was included during the Seahorse run at a concentration of 500 μM to mimic the nutrient environment of a ketogenic diet. This bHB concentration corresponds to the circulating bHB concentration of a mild ketogenic diet such as the Modified Atkins Diet.
For the Seahorse assay that was run under seizure- and ketogenic diet like-conditions the cells were then incubated in HBSS medium containing low (0.1 mM) Mg^2+ and one of the following additions: • i) 1 mM glucose (control medium), • ii) 500 μM bHB, • iii) 500 μM bHB plus 1 mM citrate, • iv) 500 μM bHB plus 1 mM pyruvate or • v) 500 μM bHB with 1 mM citrate plus 1 mM pyruvate. […]

[1] = test system: primary rat neuronal-glial cell cultures; assay: Seahorse assay (OCR/ECAR), acute 1 h nutrient pre-incubation, resting or seizure-like conditions; type: cell-based
[2] = test system: primary rat neuronal-glial cell cultures; assay: as above; type: cell-based; details: 0.25 mM and 1 mM pyruvate in low Mg2+ medium vs low Mg2+ medium without pyruvate
Experimental: A Seahorse assay was performed on primary rat neuronal-glial cell cultures to determine the impact of pyruvate and citric acid on glycolytic rates and lactate delivery, mitochondrial respiration and total (glycolytic and mitochondrial) ATP production.
Rat cortical cells were isolated from embryonic day 18 embryos using a combination of enzymatic and mechanical dissociation of brain cortical rat tissue. Immediately after dissociation, the cells were seeded at a density of 500′000 cells per mL in 96-well plates and grown at 37° C. for two weeks from day in vitro (DIV) 0 until DIV14 in Neurobasal medium supplemented with 2% (v/v) B27, 0.8 mM Magnesium (Mg2+), 25 mM glucose and 1% (v/v) Penicillin/Streptomycin. During this time neuronal axons grew out and formed synaptic contacts. In addition, glial cells, foremost astrocytes, grew and formed contacts with neurons. The incubation in 25 mM glucose accelerated the differentiation and network growth of neurons.
From DIV14 until DIV17, the cells were incubated in Neurobasal medium supplemented with 2% (v/v) B27, 0.8 mM Mg2+, 5 mM glucose and 1% (v/v) Penicillin/Streptomycin. The switch from high to low glucose was done to approach the low intracerebral glucose concentration of the human brain and create a more physiological metabolic environment.
The switch from 5 mM to 1 mM glucose matched the glucose concentrations in the human brain. Meanwhile the switch from high (0.8 mM) to low (0.1 mM) Mg^2+ increases the electrical firing frequency of neurons because Mg2+ is an inhibitor of excitatory NMDA-type ionotropic glutamate receptors, which account for most of the neuronal firing in this cell culture model. The increase in neuronal firing caused by incubation in 0.1 mM Mg^2+ increases the energy production of neurons and glial cells as reflected in the increase in basal respiration (FIG. 1B and E). After 1 hour of pre-incubation in the Seahorse medium containing the nutrients, the oxygen consumption rate [OCRs] and extracellular acidification rate [ECARs] of the neuroglial culture were measured in the Seahorse assay.
as §1, §2, §3
After OM, uncoupling agent carbonyl cyanide-p- trifluoromethoxyphenyl-hydrazon [FCCP] was injected which collapses the proton gradient across the inner mitochondrial membrane established during respiration and required for ATP synthesis. The cells attempt to restore the proton gradient following FCCP injection by maximizing respiration. […]

[3] = test system: primary mouse neuroglial cultures; assay: Cell death by high content imaging (Hoechst/NeuN nuclear shrinkage) after chronic hyperstimulation; type: cell-based; details: 1 mM; for dead neuron count (neuron death): FIG. 10F/11F
Experimental: To determine whether pyruvate and citrate protect neurons and glial cells from cell death induced by chronic electrical hyperstimulation. To assess protection from cell death induced by repeated hyperstimulation, primary mouse neuroglial cultures were assayed. Neuroglial cell cultures were prepared and grown until DIV14 as described above. From DIV14 until DIV17 they were switched to NBM containing B27, low (2.5 mM) glucose, and low (0.1 mM) Mg^2+ or high (0.8 mM) Mg^2+. Incubation in low (0.1 mM) Mg^2+ medium increases the neuronal firing rates, thus creating a state of chronic hyperstimulation. The test nutrients (pyruvate or citrate) were supplied through the medium from DIV14 until DIV17. On DIV17, the cell nuclei were stained with the Hoechst dye and co-immunolabelled for NeuN, a protein found only in the nuclei of neurons. The neuronal and non-neuronal cell nuclei were scored for nuclear shrinkage, a hallmark of cell death, by high content imaging.
To assess cell death by high content imaging the cells were fixed on DIV17 in 1% formaldehyde, permeabilized with ethanol and incubated with a rabbit polyclonal IgG antibody against NeuN, a neuron-specific protein localized to the nucleus, followed by detection with a secondary anti-rabbit IgG antibody linked to a red fluorescent label. Neuronal and non-neuronal cell nuclei were then counterstained with the blue fluorescent nuclear dye Hoechst. The nuclei were counted by a high content imager based on signal intensity and size. A cut-off value was applied to exclude objects of low signal intensity considered noise. Then, cut-off values were applied to exclude objects with an area below 30 μM^2 considered cell debris and objects with an area above 300 μM^2 considered cell clumps. A boundary of 60 μM^2 was set to distinguish between nuclei from alive and dead cells. Objects areas of 30 μM^2 to 60 μM^2 were counted as nuclei from dead cells, while object areas of 60 μM^2 to 300 μM^2 were counted as nuclei from alive cells. The counting was done at 20-fold magnification on a fixed number of optical fields per well. The counts of nuclei from dead neurons or dead cells were related to the number of alive neurons or alive cells, respectively, in the same well.
Neuroglial cell cultures were supplemented with 1 mM citrate from DIV14 until DIV17. On DIV17, total cell death and neuron-specific cell death were quantified by high content imaging. The total number of Hoechst positive objects or NeuN positive objects prior to applying cut-off values for the signal intensity and the area size was equal between the different groups (FIG. 10 A, D).

In the case of `CC(O)CC(=O)O` (centres unmarked) [bHB, b-hydroxybutyrate], the “change in basal glycolytic ATP production” value (neuroglial cell cultures; FIG. 6A) is reported as “did not alter”, the “change in total (mitochondrial and glycolytic) ATP production” value (neuroglial cell cultures; FIG. 6A) is reported as “did not impact” and the “change in basal (mitochondrial) respiration” value (neuroglial cell cultures; FIG. 6B) is reported as “did not impact”. The “change in FCCP-driven maximal respiratory capacity” value (neuroglial cell cultures; FIG. 6D) was “did not impact”, the “change in basal glycolysis” value (neuroglial cell cultures; FIG. 7A) was “did not alter” and the “change in FCCP-driven maximal glycolytic capacity” value (neuroglial cell cultures; FIG. 7C) was “did not alter”.
`CC(=O)C(=O)O` [pyruvate] was tested, and the “increase in total (mitochondrial and glycolytic) ATP production rates” value ([1]; 0.25 mM and 1 mM pyruvate in low (0.1 mM) Mg2+ medium vs low Mg2+ medium without pyruvate, FIG. 1A) was 400-500%, the “increase in FCCP-driven maximal respiratory capacity” value ([1]; 0.25 mM and 1 mM pyruvate in low Mg2+ medium vs low Mg2+ medium without pyruvate, FIG. 1D) was 200-250% and the “increase in basal respiration” value ([2]; FIG. 1B) was 30-40%. For the same molecule, the “increase in oligomycin-induced proton leak” value ([2]; FIG. 1C) was 10-15%, the “increase in glycolytic rates at baseline” value ([2]; FIG. 2A) was 15-20% and the “increase in glycolytic rates after FCCP injection” value ([2]; FIG. 2C) was 20-30%. For the same molecule, the “increase in dead cell counts from high Mg2+ to low Mg2+ medium” value ([3]; DIV14-DIV17, chronic hyperstimulation, FIG. 10C/11C) was ~1%, the dead cell counts ([3]; DIV14-DIV17, high (0.8 mM) Mg2+ medium, FIG. 10C/11C) was ~19% and the “dead neuron count (neuron death)” value ([3]; DIV14-DIV17, high Mg2+ medium) was −1.5%. For the same molecule, the dead cell counts ([3]; DIV14-DIV17, low (0.1 mM) Mg2+ medium, FIG. 10C/11C) was ~20% and the “dead neuron count (neuron death)” value ([3]; DIV14-DIV17, low Mg2+ medium) was ~1.4%.
